# In article PMC12751141, “Disrupting α-Synuclein–ClpP interaction restores mitochondrial function and attenuates neuropathology in Parkinson’s disease models” (Molecular Neurodegeneration, 2025):
# What was measured:
# SH-SY5Y cells [1] = test: Mitochondrial membrane potential (TMRM) in SH-SY5Y cells; type: cell-based; details: SH-SY5Y expressing Venus-αSyn, n = 8
# Description: Cells cultured on coverslips or 24-well plates were washed with DPBS and then incubated with 0.25 µM Tetramethylrhodamine, methyl ester (TMRM) (Invitrogen, T668), for 20 min at 37 °C. For cells cultured on coverslips, the images were visualized by microscope, and quantification of images was then carried out using NIH Fiji ImageJ software. At least 100 cells per group were counted in the analysis.
# [2] = tested on: αSyn-PFF-inoculated primary cortical neurons; test: Immunofluorescence / western blot in αSyn-PFF-inoculated primary cortical neurons; type: cell-based, mouse; details: 1 µM daily
# Description: Primary cortical neurons were isolated from normal E18 mouse cortex (sex undetermined) and cultured using complete culturing kit (cat#: KTC57ECX, TransnetYX Tissue). Briefly, 100,000 cells were seeded on poly-D-lysine coated glass coverslips (PDL15mm, TransnetYX Tissue) and cultured in NbActiv1 medium (NB1, TransnetYX Tissue). Neurons were treated with sonicated human α-Syn-PFF (SPR-322, StressMarq Biosciences) starting on post-seeding Day 5 till Day 14. Starting from post-seeding Day 9, TAT or CS2 peptide was added daily at 1µM. Neurons were fixed on Day 14 and subjected for experiments.
# Cells were grown on coverslips, fixed with 4% paraformaldehyde for 20 min at room temperature, permeabilized with 0.1% Triton X-100 in PBS, and blocked with 2% normal goat serum. The cells were incubated with the indicated primary antibodies overnight at 4℃. After washing with PBS, the cells were incubated with Alexa Fluor 488/568 or 405/568 secondary antibody (1:500; Thermo Fisher Scientific) for 2 h at room temperature. The nuclei were counterstained with DAPI (1:10000; Sigma-Aldrich). Images of the staining were acquired using a Fluoview FV3000 confocal microscope (Olympus).
# Fig. 5 CS2 treatment mitigates αSyn PFF induced neurotoxicity. (A) Representative images of ClpP, αSyn (Syn204; recognize human αSyn only) and NeuN staining in αSyn PFF-inoculated mouse primary cortical neurons that were pre-treated with TAT or CS2 peptide (scale bar = 30 μm). Quantification of ClpP and αSyn co-localization (n = 12–13 neurons/group, two-tailed Student’s t test, data are mean ± SEM). (B-C) Representative images of ClpP, αSyn (Syn204) and NeuN staining in αSyn PFF-inoculated mouse primary cortical neurons that were pre-treated with TAT or CS2 peptide (scale bar = 30 μm). Neurons were fixed in 4% PFA/4% sucrose/1%Triton-X100 to extract the soluble factions before immunostaining. […] (D-E) Representative images of β-tubulin (Tuj1) and pS129-αSyn (pS129) staining in αSyn PFF-inoculated mouse primary cortical neurons that were pre-treated with TAT or CS2 peptide (scale bar = 30 μm). […] (F-H) Representative images of PSD95, Synapsin1 (SYN1) and pS129 staining in αSyn PFF-inoculated mouse primary cortical neurons that were pre-treated with TAT or CS2 peptide (scale bar = 30 μm).
# (A) Experimental schematic of TAT or CS2 peptide treatment in mouse primary cortical neurons inoculated with human αSyn PFF: Primary cortical neurons were isolated from E18 mouse cortex (see methods) and plated on coverslips (Day -5); neurons were treated with human αSyn PFF on Day 0 at 50 ng/ml; On Day 4, TAT or CS2 (1µM) was added daily till Day 9.
# (B) Total protein lysates were harvested from primary neurons inoculated with αSyn-PFF after treatment with TAT or PBS, and subjected for western blot. Shown are the representative blots.
# wild-type littermates = test: Observed effects on wild-type littermates; type: in vivo, mouse; details: 3 mg/kg/day s.c.; WT littermates
# Description: C57BL/6 N-Tg (Thy1-SNCA)15Mjff/J (JAX: 017682) breeders (C57Bl/6NJ genetic background) were purchased from Jackson Laboratories. The mice were mated, bred, and genotyped in the animal facility of Case Western Reserve University. All mice were maintained at a 12-hour light/dark cycle (on 6 am, off 6 pm). All randomization and peptide treatments in mThy1-hSNCA mice were prepared by an experimenter not associated with the behavioral and neuropathology analysis. Only male mice were used in the study. mThy1-hSNCA transgenic mice and their age-matched WT littermates were implanted with a 28-day subcutaneous osmotic pump (Alzet, Cupertino CA, Model 2004) containing either TAT control peptide or CS2 peptide, which delivered the peptides at indicated rate (1 or 3 or 10 mg/kg/day). The pump was replaced once every four weeks. All mice were sacrificed at age of 10-month for neuropathology assessment.
# All behavioral analyses were conducted by an experimenter who was blinded to the genotypes and treatment groups. All mice were subjected to a series of behavioral measurements to monitor locomotor activity (open field test), spontaneous spatial working memory (Y-maze test), and motor coordination (Rotarod test).
# SH-SY5Y cells [3] = test: Cytotoxicity by LDH in SH-SY5Y cells; type: cell-based
# Description: The bimolecular fluorescence was examined 24-hour after transfection (n = 3, one-way ANOVA with Tukey’s post-hoc test, scale bar = 30 μm). (D) Quantification of the concentration (ng/ml) of extracellular αSyn monomer and oligomer, and intracellular αSyn oligomer in Tet-inducible SH-SY5Y cells that were pre-treated with TAT or CS2 peptide 30-minute before adding doxycycline (Dox) to induce αSyn expression. The concentration of αSyn species was determined by ELISA (n = 4, one-way ANOVA with Tukey’s post-hoc test; data are mean ± SEM). (E) Representative images of Mito-SOX staining in SH-SY5Y cells that were pre-treated with TAT or CS2 peptide and transfected with split Venus-αSyn vectors. Mitochondrial ROS production was determined by Mito-SOX staining after 24-hour transfection (n = 4, two-tailed Student’s t test, scale bar = 30 μm).
# (G) Quantification of cytotoxicity examined by LDH assay in SH-SY5Y cells treated with indicated peptides (n = 3, one-way ANOVA with Tukey’s post-hoc test, data are mean ± SEM).
smiles,measurement,setting,value
"CC(C)[C@H](NC(=O)CNC(=O)CNC(=O)CCCCCNC(=O)[C@H](CCCNC(=N)N)NC(=O)[C@H](CCCNC(=N)N)NC(=O)[C@H](CCCNC(=N)N)NC(=O)[C@H](CCC(N)=O)NC(=O)[C@H](CCCNC(=N)N)NC(=O)[C@H](CCCNC(=N)N)NC(=O)[C@H](CCCCN)NC(=O)[C@H](CCCCN)NC(=O)[C@H](CCCNC(=N)N)NC(=O)CNC(=O)[C@@H](N)Cc1ccc(O)cc1)C(=O)N[C@H](C(=O)N[C@H](C(=O)N[C@@H](C)C(=O)O)[C@@H](C)O)C(C)C [CS2, TAT-C6-GGVVTA]",mitochondrial membrane potential,SH-SY5Y cells [1],rescued upon CS2 treatment
same,"ClpP expression, PFF neurons",[2]; five days,rescued the expression of ClpP
same,ClpP / αSyn co-localization,"[2]; five days, n = 12–13 neurons/group",reduced this colocalization
same,"insoluble αSyn, PFF neurons","[2]; detergent-insoluble, n = 20-30 neurons per group",significantly reduced the insoluble ClpP and αSyn signal
same,insoluble ClpP,"[2]; detergent-insoluble, n > 30 neurons/group",significantly reduced the insoluble ClpP and αSyn signal
same,"pS129-αSyn level, PFF neurons",[2]; n = 3–6,markedly reduced the level of pS129-αSyn
same,Synapsin1/PSD95 colocalization,[2]; n > 30 areas,substantially restored Synapsin1/PSD95 colocalization
same,effects on wild-type littermates,wild-type littermates,no observable effects on wild-type littermates
same,"cell death, A53T-αSyn","SH-SY5Y cells [3]; SH-SY5Y stably overexpressing A53T-αSyn, 2-day treatment, 12-hour serum starvation, n = 4",significantly reduced cell death
same,"cell death, WT-αSyn","SH-SY5Y cells [3]; SH-SY5Y stably overexpressing WT-αSyn, 2-day treatment, 12-hour serum starvation, n = 4",significantly reduced cell death
same,"cell viability, healthy cells","SH-SY5Y cells [3]; healthy SH-SY5Y, 3 days, n = 3",did not affect cell viability
